Source: PMC3969223, “Characterization of WZ4003 and HTH-01-015 as selective inhibitors of the LKB1-tumour-suppressor-activated NUAK kinases” (Biochemical Journal, 2013)

How the values were obtained:
MYPT1 phosphorylation = MYPT1 phosphorylation on detachment, MEFs; assay type: cell-based, mouse; conditions: 10 μM, 16 h
Protocol: Figure 7 NUAK1 inhibition suppresses cell proliferation (A) U2OS cells were incubated with or without 10 μM WZ4003 or 10 μM HTH-01-015 and a cell proliferation assay was carried out over 5 days in triplicate using the CellTiter 96® AQueous Non-Radioactive Cell Proliferation Assay kit (Promega) (as described in the Materials and methods section). U2OS cells in which NUAK1 has been knocked-down using two different shRNA hairpins were used in parallel as controls. The efficiency of the knock down of each shRNA is shown in top panel. SCR, control scrambled shRNA hairpin; shNUAK1 (1), first NUAK1 shRNA hairpin; shNUAK1 (2), second NUAK1 shRNA hairpin. (B) U2OS cells were treated with (+) or without (−) 10 μM WZ4003 or 10 μM HTH-01-015. After 16 h cell media was removed and cells were treated with EDTA-PBS-based cell dissociation buffer supplemented with 10 μM WZ4003, 10 μM HTH-01–015 or DMSO for 20 min. Cell detachment was induced with gentle tapping of the plates followed by gentle centrifugation at 70 g for 3 min. Cells were lysed immediately after removal of the media and immunoblotted for the detection of the indicated antibodies. (C and D) As above, except NUAK1^+/+ and NUAK1^−/− MEFs were used. Similar results were obtained in three separate experiments.

U2OS cells = assay: 3D Matrigel Transwell invasion assay; assay type: cell-based; conditions: 10 μM, 16 h, 10% FBS chemoattractant
Protocol: The ability of U2OS cells to invade in the presence or absence of 10 μM HTH-01-015 or WZ4003 was tested in a growth-factor-reduced Matrigel™ invasion chamber (BD Biosciences, catalogue number 354483) as described previously. Cells were serum-deprived for 2 h, detached using cell-dissociation buffer (Gibco), and 2.5×10^5 cells suspended in DMEM containing 1% (w/v) BSA were added to the upper chambers in triplicate and chemoattractant [DMEM containing 10% (v/v) FBS] was added to the lower wells. The chambers were kept at 37°C in 5% CO2 for 16 h in the presence or absence of 10 μM HTH-01-015 or WZ4003 both in the upper and lower wells. Non-invaded cells were removed from the upper face of the filters by scraping, and cells that had migrated to the lower face of the filters were fixed and stained with Reastain Quick-Diff kit (Reagena) and images (×10 magnification) were captured. For cell invasion assays, statistical significance was assessed using GraphPad Prism 5.0.

NUAK1 = target: T1, NUAK1 (Homo sapiens, UniProt O60285); assay: GST–NUAK1 Sakamototide peptide kinase assay; assay type: biochemical; conditions: 200 μM Sakamototide, 100 μM [γ-32P]ATP; read-out: IC50 for NUAK1 (wild-type GST–NUAK1)
T1 construct: made in house; host or cells: HEK-293 cells, transient transfection of pEBG2T construct
T1 sequence (O60285 1-661): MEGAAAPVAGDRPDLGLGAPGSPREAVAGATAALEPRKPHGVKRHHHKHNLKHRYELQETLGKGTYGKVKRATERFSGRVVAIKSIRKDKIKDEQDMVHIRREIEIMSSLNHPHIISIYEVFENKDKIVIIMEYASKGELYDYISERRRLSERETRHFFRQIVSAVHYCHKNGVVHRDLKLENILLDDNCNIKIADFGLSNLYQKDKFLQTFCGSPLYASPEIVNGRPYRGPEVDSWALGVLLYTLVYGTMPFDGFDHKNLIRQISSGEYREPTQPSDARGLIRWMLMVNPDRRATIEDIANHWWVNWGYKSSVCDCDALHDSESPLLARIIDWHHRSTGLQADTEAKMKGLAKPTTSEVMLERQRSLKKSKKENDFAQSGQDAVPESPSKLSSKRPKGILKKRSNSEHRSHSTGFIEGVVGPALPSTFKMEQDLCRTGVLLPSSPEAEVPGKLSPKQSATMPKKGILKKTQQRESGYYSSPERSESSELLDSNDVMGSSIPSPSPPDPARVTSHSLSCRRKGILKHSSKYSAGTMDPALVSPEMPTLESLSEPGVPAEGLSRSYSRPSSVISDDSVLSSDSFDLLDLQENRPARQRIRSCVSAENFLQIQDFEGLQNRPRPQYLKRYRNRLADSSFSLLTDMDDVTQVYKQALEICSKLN
Protocol: Active GST–NUAK1, GST–NUAK1[A195T] and GST–NUAK2 enzymes were purified using glutathione–Sepharose from HEK-293 cell lysates 36–48 h following the transient transfection of pEBG2T mammalian constructs expressing N-terminal GST-tagged NUAK1, NUAK1[A195T] or NUAK2. For peptide kinase assays, 96-well plates were used, and each reaction was performed in triplicate. Each reaction was set up in a total volume of 50 μl containing 100 ng of NUAK1 (wild-type or A195T mutant) or NUAK2 in 50 mM Tris/HCl (pH 7.5), 0.1 mM EGTA, 10 mM magnesium acetate, 200 μM Sakamototide, 0.1 mM [γ-^32P]ATP (450–500 c.p.m./pmol) and the indicated concentrations of inhibitors dissolved in DMSO. After incubation for 30 min at 30°C, reactions were terminated by adding 25 mM (final) EDTA to chelate the magnesium. Then, 40 μl of the reaction mix was spotted on to P81 paper and immersed in 50 mM orthophosphoric acid. Samples were washed three times in 50 mM orthophosphoric acid followed by a single acetone rinse and air drying. The incorporation of [γ-^32P]ATP into Sakamototide was quantified by Cerenkov counting. The values were expressed as a percentage of the DMSO control. IC50 curves were developed and IC50 values were calculated using GraphPad Prism software.

| Compound | Suppression of MYPT1 phosphorylation in MEFs (in words) (MYPT1 phosphorylation) | Invasiveness of U2OS cells (in words) (U2OS cells) | IC50 (NUAK1) |
| --- | --- | --- | --- |
| Cc1nc(Nc2cnn(C3CCNCC3)c2)nc2c1N(C)C(=O)c1cc3ccccc3cc1N2C [HTH-01-015] | to the same extent as NUAK1-knockout | markedly inhibited the invasiveness | 100 nM |
| CCC(=O)Nc1cccc(Oc2nc(Nc3ccc(N4CCN(C)CC4)cc3OC)ncc2Cl)c1 [WZ4003] | to the same extent as NUAK1-knockout | markedly inhibited the invasiveness | 20 nM |
| CN1C(=O)c2ccccc2N(C)c2nc(Nc3cnn(C4CCNCC4)c3)ncc21 [XMD-17-51] |  |  | 1.5 nM |
| CN1C(=O)c2cc3ccccc3cc2N(C)c2nc(Nc3cnn(C4CCNCC4)c3)ncc21 [XMD-18-42] |  |  | 30 nM |
